Results on 13 molecules are retold here after patent US20130030017A1, “QUINOLINE DERIVATIVES AS ANTIBACTERIAL AGENTS” (priority 2005, published 2013).

Data set [1] concerns Streptococcus pneumoniae (ATCC6305). Kind of data set: Microtitre plate assay, IC90 determination (SPN 6305). It counts as cell-based. The settings on record: 90% inhibitory concentration for bacterial growth, 37° C., resazurin fluorescence; for IC90 SPN 6305: 24 hours; for IC90: Streptococcus pneumoniae, ATCC6305, 24 h. Here is the method: (§1) The bacteria used in this study were grown overnight in flasks containing 100 ml Mueller-Hinton Broth (Becton Dickinson—cat. no. 275730) in sterile de-ionized water, with shaking, at 37° C. Stocks (0.5 ml/tube) were stored at −70° C. until use. Bacteria titrations were performed in microtiter plates and colony forming units (CFUs) were determined. In general, an inoculum level of approximately 100 CFUs was used for susceptibility testing.
(§2) Flat-bottom, sterile 96-well plastic microtiter plates were filled with 180 μl of sterile deionized water, supplemented with 0.25% BSA. Subsequently, stock solutions (7.8× final test concentration) of compounds were added in 45 μl volumes in column 2 Serial five-fold dilutions (45 μl in 180 μl) were made directly in the microtiter plates from column 2 to reach column 11. Untreated control samples with (column 1) and without (column 12) inoculum were included in each microtiter plate. Depending on the bacteria type, approximately 10 to 60 CFU per well of bacteria inoculum (100 TCID50), in a volume of 100 μl in 2.8× Mueller-Hinton broth medium, was added to the rows A to H, except column 12. The same volume of broth medium without inoculum was added to column 12 in row A to H. The cultures were incubated at 37° C. for 24 hours under a normal atmosphere (incubator with open air valve and continuous ventilation). At the end of incubation, one day after inoculation, the bacterial growth was quantitated fluorometrically. Therefore resazurin (0.6 mg/ml) was added in a volume of 20 μl to all wells 3 hours after inoculation, and the plates were re-incubated overnight. A change in colour from blue to pink indicated the growth of bacteria. The fluorescence was read in a computer-controlled fluorometer (Cytofluor Biosearch) at an excitation wavelength of 530 nm and an emission wavelength of 590 nm. The % growth inhibition achieved by the compounds was calculated according to standard methods. The IC90 (expressed in μg/ml) was defined as the 90% inhibitory concentration for bacterial growth.

For data set [2], the system named is methicilline resistant Staphylococcus aureus (MRSA) (a clinical isolate from the University of Antwerp). Briefly: Microtitre plate assay, IC90 determination (STA RMETH). It counts as cell-based. Particulars: 90% inhibitory concentration for bacterial growth, 37° C., 24 hours, resazurin fluorescence. Here is the method: as §1, §2
Data set [3] relates to Streptococcus pyogens (ATCC8668). Kind of data set: Microtitre plate assay, IC90 determination (SPY 8668). It counts as cell-based. The settings on record: 90% inhibitory concentration for bacterial growth, 37° C., resazurin fluorescence; for IC90 SPY 8668: 24 hours. Here is the method:
as §1, §2

In data set [4] the test system is Staphylococcus aureus (ATCC29213). Kind of data set: Microtitre plate assay, IC90 determination (STA 29213). It counts as cell-based. The settings on record: 90% inhibitory concentration for bacterial growth, 37° C., resazurin fluorescence; for IC90 STA 29213: 24 hours; for IC90: Staphylococcus aureus, ATCC29213, 24 h. Here is the method: as §1, §2
Data set [5] has as its system Pseudomonas aeruginosa (ATCC27853). Briefly: Microtitre plate assay, IC90 determination (PAE 27853). Type of data set: cell-based. The settings on record: 90% inhibitory concentration for bacterial growth, 37° C., resazurin fluorescence; for IC90 PAE 27853: 24 hours; for IC90: Pseudomonas aeruginosa, ATCC27853, 24 h. Here is the method:
as §1, §2

The subject of data set [6] is Enterococcus faecalis (ATCC29212). Briefly: Microtitre plate assay, IC90 determination (EFA 29212). The settings on record: 90% inhibitory concentration for bacterial growth, 37° C., resazurin fluorescence; for IC90 EFA 29212: 24 hours; for IC90: Enterococcus faecalis, ATCC29212, 24 h. Type of data set: cell-based. Here is the method:
as §1, §2

≈ marks a conversion by molar mass, not a printed value.

For the molecule `COc1nc2ccc(Br)cc2cc1C(c1ccccc1)C(O)(CCc1ccc(F)c(F)c1)CCN(C)C` (racemic) [Compound 51], the “IC90 SPN 6305” value in data set [1] amounted to 0.4 µg/mL (≈ 0.702 µM). Also, in data set [2], the “IC90 STA RMETH” value worked out at 11.4 µg/mL (≈ 20 µM). Moreover, the “IC90 SPY 8668” value in data set [3] worked out at 5.7 µg/mL (≈ 10 µM). Moreover, the “IC90 STA 29213” value in data set [4] is 1.8 µg/mL (≈ 3.16 µM). The “IC90 PAE 27853” value in data set [5] worked out at 9.0 µg/mL (≈ 15.8 µM). Further, the “IC90 EFA 29212” value in data set [6] stood at 10.1 µg/mL (≈ 17.7 µM).

As to `COc1nc2ccc(Br)cc2cc1C(c1ccccc1)C(O)(CCc1ccc(C)cc1)CCN(C)C` (racemic) [Compound 53], the “IC90 SPN 6305” value in data set [1] turned out to be 1.7 µg/mL (≈ 3.1 µM). In addition, the “IC90 STA RMETH” value in data set [2] was found to be 13.8 µg/mL (≈ 25.2 µM). Moreover, the “IC90 SPY 8668” value in data set [3] stood at 1.7 µg/mL (≈ 3.1 µM). The “IC90 STA 29213” value in data set [4] amounted to 1.7 µg/mL (≈ 3.1 µM). Also, in data set [5], the “IC90 PAE 27853” value is 3.9 µg/mL (≈ 7.12 µM). Besides, the “IC90 EFA 29212” value in data set [6] worked out at 6.9 µg/mL (≈ 12.6 µM).

Molecule `COc1nc2ccc(C)cc2cc1C(c1ccccc1)C(O)(CCc1ccccc1)CCN(C)C` (stereo not drawn) [Compound 1] returned a melting point of 142 °C. Also, the 90% effect level in data set [1] (IC90) was put at 1.9 µg/mL (≈ 4.05 µM). Moreover, in data set [3], the “IC90 SPY 8668” value came out at 7.4 µg/mL (≈ 15.8 µM). In addition, the IC90 in data set [4] was found to be 9.4 µg/mL (≈ 20.1 µM). The same molecule displayed an IC90 in data set [5] of 18.7 µg/mL (≈ 39.9 µM). For the same molecule, the IC90 in data set [6] came out at 37.2 µg/mL (≈ 79.4 µM).

Take `COc1nc2cccc(Br)c2cc1C(c1ccccc1)C(O)(CCc1ccccc1)CCN(C)C` (stereo not drawn) [Compound 5]: the melting point is 156 °C. In addition, the “IC90 SPN 6305” value in data set [1] came out at 4.8 µg/mL (≈ 9 µM). In data set [3] (Streptococcus, ATCC8668, 24 h), this molecule had an IC90 of 42.4 µg/mL (≈ 79.5 µM). The “IC90 STA 29213” value in data set [4] amounted to 23.8 µg/mL (≈ 44.6 µM). Also, the IC90 in data set [5] is 53.4 µg/mL (≈ 100 µM). The IC90 in data set [6] stood at 53.4 µg/mL (≈ 100 µM).

Turning to `COc1nc2cccc(Br)c2cc1C(c1ccccc1)C(O)(CCc1ccccc1)CCN(C)C` (stereo not drawn) [Compound 6], the melting point was found to be 126 °C. For the same molecule, the “IC90 SPN 6305” value in data set [1] came to 1.7 µg/mL (≈ 3.19 µM). For the same molecule, the “IC90 STA 29213” value in data set [4] was 8.5 µg/mL (≈ 15.9 µM).

`COc1nc2ccc(Br)cc2cc1C(c1ccccc1)C(O)(CCc1cccc2ccccc12)CCN(C)C` (stereo not drawn) [Compound 7] displayed a melting point of 206 °C. Besides, the “IC90 SPN 6305” value in data set [1] came to 46.4 µg/mL (≈ 79.5 µM). For the same molecule, the “IC90 STA 29213” value in data set [4] came to 52.0 µg/mL (≈ 89.1 µM).

Molecule `COc1nc2ccc(Cl)cc2cc1C(c1ccccc1)C(O)(CCc1ccccc1)CCN(C)C` (stereo not drawn) [Compound 9] had a melting point of 172 °C. Also, the IC90 in data set [1] was found to be 1.7 µg/mL (≈ 3.48 µM). The molecule further gave an IC90 in data set [4] of 24.5 µg/mL (≈ 50.1 µM).

In turn, `CSc1nc2ccc(Br)cc2cc1C(c1ccccc1)C(O)(CCc1ccccc1)CCN(C)C` (stereo not drawn) [Compound 10] yielded a melting point of 191 °C. In data set [1], the “IC90 SPN 6305” value is 9.8 µg/mL (≈ 17.8 µM). In data set [4], the 90% effect level (IC90) was put at 13.8 µg/mL (≈ 25.1 µM).

`COc1nc2ccccc2cc1C(c1ccccc1)C(O)(CCc1ccccc1)CCN(C)C` (stereo not drawn) [Compound 12] showed a melting point of 122 °C. It took 9.1 µg/mL (≈ 20 µM) to reach the 90% level in data set [1] (IC90). Also, the 90% effect level in data set [4] (IC90) was put at 10.2 µg/mL (≈ 22.4 µM).

As to `COc1ccc(CCC(O)(CCN(C)C)C(c2ccc(Cl)cc2)c2cc3cc(Br)ccc3nc2OC)cc1` (stereo not drawn) [Compound 21], the melting point is 142 °C. The “IC90 SPN 6305” value in data set [1] is 2.1 µg/mL (≈ 3.51 µM). For the same molecule, the “IC90 SPY 8668” value in data set [3] worked out at 1.9 µg/mL (≈ 3.18 µM). For the same molecule, the “IC90 STA 29213” value in data set [4] stood at 1.9 µg/mL (≈ 3.18 µM). In addition, the “IC90 PAE 27853” value in data set [5] came out at 1.9 µg/mL (≈ 3.18 µM). Also, in data set [6], the “IC90 EFA 29212” value was 1.9 µg/mL (≈ 3.18 µM).

`CSc1nc2ccc(C)cc2cc1C(c1ccccc1)C(O)(CCc1ccccc1)CCN(C)C` (stereo not drawn) [Compound 29] yielded a melting point of 180 °C. The “IC90 SPN 6305” value in data set [1] was determined as 7.7 µg/mL (≈ 15.9 µM). In data set [4], the “IC90 STA 29213” value is 48.5 µg/mL (≈ 100 µM).

Regarding `CSc1nc2ccc(Br)cc2cc1C(c1ccc(Cl)cc1)C(O)(CCc1ccccc1)CCN(C)C` (stereo not drawn) [Compound 32], the melting point came out at 222 °C. Further, the “IC90 SPN 6305” value in data set [1] stood at 2.1 µg/mL (≈ 3.6 µM). In data set [4], the “IC90 STA 29213” value worked out at 9.3 µg/mL (≈ 15.9 µM).

`COc1nc2ccc(Br)cc2cc1C(c1ccccc1)C(O)(CCc1ccc(F)cc1)CCN1CCCCC1` (stereo not drawn) [Compound 34]: the melting point is 194 °C. Besides, the “IC90 SPN 6305” value in data set [1] is 9.4 µg/mL (≈ 15.9 µM). The “IC90 STA 29213” value in data set [4] was 59.2 µg/mL (≈ 100 µM).
